Legend:
[1] = molecular target: Angiotensin II receptor type 1 (Oryctolagus cuniculus) (UniProt P34976); assay: Antagonism of angiotensin II induced contraction of isolated rabbit aorta
[2] = molecular target: T1, Angiotensin II receptor (AT-1) type-1 (Rattus norvegicus, UniProt P29089+P25095); assay: Binding affinity of compound in presence of bovine serum albumin (BSA) at 0.01% against rat adrenal Angiotensin II receptor, type 1; type: cell-free
T1 sequence (P29089 whole entry): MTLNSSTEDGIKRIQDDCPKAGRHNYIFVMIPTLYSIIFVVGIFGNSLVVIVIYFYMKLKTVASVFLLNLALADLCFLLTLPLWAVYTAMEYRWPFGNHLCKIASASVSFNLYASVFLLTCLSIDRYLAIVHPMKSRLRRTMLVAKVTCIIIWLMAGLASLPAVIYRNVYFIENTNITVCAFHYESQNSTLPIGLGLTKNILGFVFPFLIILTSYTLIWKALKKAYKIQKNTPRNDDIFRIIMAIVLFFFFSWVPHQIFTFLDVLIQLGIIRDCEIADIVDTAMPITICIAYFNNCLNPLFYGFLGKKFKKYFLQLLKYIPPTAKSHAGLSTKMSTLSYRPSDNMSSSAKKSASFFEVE
T1 sequence (P25095 whole entry): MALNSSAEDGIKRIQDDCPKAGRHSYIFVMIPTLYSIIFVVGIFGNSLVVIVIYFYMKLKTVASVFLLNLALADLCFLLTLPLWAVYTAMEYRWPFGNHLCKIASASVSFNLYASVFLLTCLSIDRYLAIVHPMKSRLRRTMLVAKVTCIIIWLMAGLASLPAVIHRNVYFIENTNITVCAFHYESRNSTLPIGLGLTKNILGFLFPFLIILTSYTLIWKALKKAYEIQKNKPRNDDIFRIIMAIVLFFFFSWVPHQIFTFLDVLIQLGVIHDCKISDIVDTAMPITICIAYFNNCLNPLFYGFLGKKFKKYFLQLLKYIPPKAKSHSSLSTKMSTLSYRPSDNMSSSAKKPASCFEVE

[3] = molecular target: T1, Angiotensin II receptor (AT-1) type-1; assay: Binding affinity of compound in presence of bovine serum albumin (BSA) at 0.22% against rat adrenal Angiotensin II receptor, type 1; type: cell-free
[4] = molecular target: T1, Angiotensin II receptor (AT-1) type-1; assay: Binding affinity for Angiotensin II receptor, type 1 in rat adrenal cortical membranes using [125I]Sar1, Ile8-angiotensin II; type: cell membranes
[5] = molecular target: T1, Angiotensin II receptor (AT-1) type-1; assay: Binding affinity of compound in presence of bovine serum albumin (BSA) at 0% against rat adrenal Angiotensin II receptor, type 1; type: cell-free
[6] = molecular target: T1, Angiotensin II receptor (AT-1) type-1; assay: Binding affinity of compound in presence of bovine serum albumin (BSA) at 0.01% against rat Angiotensin II receptor, type 1; type: cell-free
[7] = molecular target: T1, Angiotensin II receptor (AT-1) type-1; assay: Binding affinity of compound in presence of bovine serum albumin (BSA) at 0% against rat Angiotensin II receptor, type 1; type: cell-free

Angiotensin II receptor type 1 (Oryctolagus cuniculus), sequence (P34976 whole entry, looked up): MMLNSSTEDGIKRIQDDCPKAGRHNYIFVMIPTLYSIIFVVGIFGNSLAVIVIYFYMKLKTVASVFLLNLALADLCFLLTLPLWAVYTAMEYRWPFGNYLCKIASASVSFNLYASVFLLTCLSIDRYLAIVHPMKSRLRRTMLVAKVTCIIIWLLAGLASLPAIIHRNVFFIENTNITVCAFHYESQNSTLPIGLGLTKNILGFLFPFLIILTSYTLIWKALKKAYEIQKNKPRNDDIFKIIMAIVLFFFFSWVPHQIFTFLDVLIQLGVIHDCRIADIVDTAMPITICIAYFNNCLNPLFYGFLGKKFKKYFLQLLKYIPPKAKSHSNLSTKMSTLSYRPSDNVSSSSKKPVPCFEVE

## CCCCc1c(Oc2ccc(-c3ccccc3-c3nn[nH]n3)cc2)nc2c(C(=O)O)cccc2[n+]1[O-]
[1]
  Kb: 0.5 nM

## Cc1c(Oc2ccc(-c3ccccc3-c3nn[nH]n3)cc2)nc2ccccc2[n+]1[O-]
[2]
  Ki: 550 nM
[3]
  Ki: 24400 nM
[4]
  Ki: 550 nM
[1]
  Kb: 480 nM

## CCCCc1c(Oc2ccc(-c3ccccc3-c3nn[nH]n3)cc2)nc2c(C(=O)O)c(OCCC)ccc2[n+]1[O-]
[4]
  Ki: 68 nM
[1]
  Kb: 0.19 nM

## CCCCc1nc2ccc(F)c(C(=O)O)c2nc1Oc1ccc(-c2ccccc2-c2nn[nH]n2)cc1
[4]
  Ki: 21 nM
[1]
  Kb: 0.97 nM

## CCCCc1c(Oc2ccc(-c3ccccc3-c3nn[nH]n3)cc2)nc2c(C(=O)O)c(OC(C)C)ccc2[n+]1[O-]
[4]
  Ki: 28 nM

## CCCCc1c(Oc2ccc(-c3ccccc3-c3nn[nH]n3)cc2)nc2c(C(=O)O)c(N)ccc2[n+]1[O-]
[4]
  Ki: 7.4 nM
[1]
  Kb: 0.25 nM

## CCCCOc1ccc2c(nc(Oc3ccc(-c4ccccc4-c4nn[nH]n4)cc3)c(CCCC)[n+]2[O-])c1C(=O)O
[4]
  Ki: 50 nM
[1]
  Kb: 0.27 nM

## CCCCc1c(Oc2ccc(-c3ccccc3-c3nn[nH]n3)cc2)nc2c(C(=O)O)c(OCC(F)(F)F)ccc2[n+]1[O-]
[4]
  Ki: 22 nM
[1]
  Kb: 2 nM

## CCCc1nc2cccc(C(=O)O)c2nc1Oc1ccc(-c2ccccc2-c2nn[nH]n2)cc1
[4]
  Ki: 190 nM
[1]
  Kb: 13 nM

## CCCCc1nc2ccccc2nc1Oc1ccc(-c2ccccc2-c2nn[nH]n2)cc1
[3]
  Ki: 2200 nM
[4]
  Ki: 137 nM
[1]
  Kb: 290 nM

## CCCCc1c(Oc2ccc(-c3ccccc3-c3nn[nH]n3)cc2)nc2ccccc2[n+]1[O-]
[2]
  Ki: 71 nM
[3]
  Ki: 580 nM
[4]
  Ki: 71 nM
[1]
  Kb: 230 nM

## CCCCc1c(Oc2ccc(-c3ccccc3-c3nn[nH]n3)cc2)nc2c(C(=O)O)c(OC)ccc2[n+]1[O-]
[4]
  Ki: 17 nM
[1]
  Kb: 0.13 nM

## CCCCc1nc2ccc(OCC)c(C(=O)O)c2nc1Oc1ccc(-c2ccccc2-c2nn[nH]n2)cc1
[4]
  Ki: 44 nM
[1]
  Kb: 0.12 nM

## CCCCc1c(Oc2ccc(-c3ccccc3-c3nn[nH]n3)cc2)nc2c(C(=O)O)c(OCC)ccc2[n+]1[O-]
[2]
  Ki: 1.3 nM
[5]
  Ki: 0.4 nM
[4]
  Ki: 1.3 nM
[1]
  Kb: 0.026 nM

## Cc1nc2ccccc2nc1Oc1ccc(-c2ccccc2-c2nn[nH]n2)cc1
[1]
  Kb: 2300 nM

## CCCCc1c(Oc2ccc(-c3ccccc3-c3nn[nH]n3)cc2)nc2c(C(=O)O)c(F)ccc2[n+]1[O-]
[4]
  Ki: 9 nM
[1]
  Kb: 0.58 nM

## CCCCc1nc2cccc(C(=O)O)c2nc1Oc1ccc(-c2ccccc2-c2nn[nH]n2)cc1
[6]
  Ki: 46 nM
[4]
  Ki: 46 nM
[1]
  Kb: 2.1 nM
[7]
  Ki: 5.5 nM

## CCCCc1nc2ccccc2[n+]([O-])c1Oc1ccc(-c2ccccc2-c2nn[nH]n2)cc1
[4]
  Ki: 4.5 nM
[1]
  Kb: 0.44 nM

Reference: ChEMBL document CHEMBL1126953, “Quinoxaline N-oxide containing potent angiotensin II receptor antagonists: synthesis, biological properties, and structure-activity relationships” (J Med Chem, 1993)
